{"source": "patent US20140243415A1", "about": "“COMPOUNDS INHIBITING GALECTIN-1 EXPRESSION, CANCER CELL PROLIFERATION, INVASION, AND TUMORIGENESIS” (ONCOETHIX SA, priority 2011, published 2014)", "assay_type_in_all_cases": "cell-based, human", "key": {"SQ20B": {"system": "SQ20B", "assay": "MTT cell cytotoxicity assay", "experimental": "(§1) Cell survival was determined using the MTT assay (3-[4,5-dimethylthiazol-2-yl]-2,5-diphenyltetrazolium bromide; Sigma, Saint-Quentin Fallavier, France). The conversion of yellow water-soluble tetrazolium MTT into purple insoluble formazan is catalyzed by mitochondrial dehydrogenases and used to estimate the number of viable cells. In brief, cells were seeded in 96-well tissue culture plates at a density of 2×10^3 cells/well. After 72 h drug exposure and 48 h wash-out, cells were incubated with 0.4 mg/ml MTT for 4 hours at 37° C. After incubation, the supernatant was discarded, insoluble formazan precipitates were dissolved in 0.1 ml of DMSO and the absorbance was measured at 560 nm by use of a microplate reader (Thermo, France). Wells with untreated cells or with drug-containing medium without cells were used as positive and negative controls respectively. IC50's were determined as the halves of maximal inhibitory drug concentration for each cell line.\n(§2) The antiproliferative effects of OTX-008 and anginex were assessed using MTT assay in a panel of human cancer cell lines of human origins expressing various levels of Lgals-1 mRNA and galectin-1 protein expressions (Supplementary Table 1). […] Remaining cell lines were less sensitive to OTX-008 with GI50 values >9 μM. […] No correlation between mRNA expressions of galectin-2, galectin-3, and galectin-8 as well as semaphorin-3A, semaphorin-3B, neuropilin-1, VEGFR1-3, VEGFA-D, and PDGFRa&P3 and sensitivity to OTX-008 were detected in the panel."}, "OVCAR3": {"system": "OVCAR3", "assay": "MTT cell cytotoxicity assay", "conditions": "72 h drug exposure and 48 h wash-out", "experimental": "as §1, §2"}, "A2780-1A9": {"system": "A2780-1A9", "assay": "MTT cell cytotoxicity assay", "experimental": "as §1, §2"}, "cdc2 (tyrosine 15)": {"system": "cdc2 (tyrosine 15)", "assay": "Western blot of phosphorylated cdc2 in SQ20B", "conditions": "3 μM OTX-008 for 72 h", "experimental": "Cells were lysed in buffer containing 50 mM HEPES (pH 7.6), 150 mM NaCl, 1% Triton X-100, 2 mM sodium vanadate, 100 mM NaF, and 0.4 mg/ml phenylmethylsulfonyl fluoride. Equal amounts of protein (30 μg/lane) were subjected to SDS-PAGE and transferred to nitrocellulose membranes. Membranes were blocked with 5% milk in 0.05% Tween 20/phosphate-buffered saline and then incubated with the primary antibody overnight. Membranes were then washed and incubated with the secondary antibody conjugated to horseradish peroxidase. Bands were visualized by using the enhanced chemiluminescence Western blotting detection system. Densitometric analysis was performed under conditions that yielded a linear response. The following antibodies were used: anti-p-cdc2 (tyr15), anti-p-wee1 (ser642), anti-p-p44/42 MAPK (thr202/tyr204), anti-p44/42, anti-p-AKT (ser473), anti-AKT, anti-p-S6 (ser235/236) (Cell Signaling, Saint Quentin Yvelines, France), anti-p-PKCα (ser657) (BD Biosciences, Le-Pont-de-Claix, France) and anti-galectin-1 (Abcam, Cambridge, Mass., USA). All antibodies were used at a 1:1000 dilution.\nTo study the mechanism of OTX-008-induced inhibition of cell proliferation, the effect of OTX-008 on cell cycle in SQ20B cells was examined (FIG. 5B). […] Activation of cdc2 (cdk1) by de-phosphorylation of tyrosine 15 is required for G2/M transition. […]"}, "SQ20B cells [1]": {"system": "SQ20B cells", "assay": "Matrigel invasion assay", "experimental": "FIG. 5. Modulation of the galectin-1/semaphorin-3A/neuropilin system in SQ20B cells. A—Effects of galectin-1 (Gall), semaphorin-3A (Sema3A), lactose, with or without four different concentrations of OTX-008 on SQ20B growth at day 6. Embedded figure: Proliferation assay of SQ20B and SQ-shGAL1. B—In vitro matrigel invasion assay of SQ20B exposed to […] galectin-1, 1 μg/ml semaphorin-3A, 200 ng/ml lactose or 10 μM UO126 with or without 3 μM OTX-008. Embedded figure: In vitro matrigel invasion assay of SQ20B and SQ-shGAL1. Invasion was quantified after 48 h by counting the average number of invaded cells.\n8 μm membranes were coated with Matrigel (50 μg). The inserts were placed within a 24-well chamber containing 0.6 ml of RPMI 1640 medium with 20% fetal bovine serum as chemoattractant. 10^5 cells were seeded into the inserts suspended in 0.3 ml of serum-free RPMI. After incubation for 48 h at 37° C., the upper surface of the filter was scraped to remove non-invasive cells. Invasive cells were fixed and stained with a Diff Quik detection Kit (Dade Behring, Paris, France). For quantification, the average number of invading cells per field was assessed by counting 9 random fields under a light microscope (400×).\nGalectin-1 may form extracellular lattices counteracting the inhibitory properties of semaphorin-3A on neuropilin-1, eventually leading to the modulation of the vascular endothelial growth factor (VEGFR) and platelet derived growth factor (PDGFR) receptors, fibronectin, and laminin activity SQ20B cells expressed significant mRNA and protein levels of semaphorin-3A and neuropilin-1, PDGFRa&(, VEGF A-D, and VEGFR1-3 (Supplementary FIG. 2A). Thus, SQ20B cells were selected to evaluate the effects of OTX-008 on galectin-1/semaphorin-3A interactions. No difference between SQ20B cells growing in plastic or fibronectin- and laminin-coated plates. […] Galectin-1 and semaphorin-3A induced invasion was inhibited by OTX-008 mimicking the effects of lactose in this model."}, "SQ20B cells [2]": {"system": "SQ20B cells", "assay": "Cell cycle analysis by flow cytometry", "conditions": "72 h exposure", "experimental": "Cell cycle analysis was assessed by flow cytometry. In brief, cells were seeded onto […] flasks and treated with various concentrations of OTX-008. After 72 h exposure, adherent and non-adherent cells were recovered, washed with PBS, fixed in 70% ethanol and stored at −20° C. until use. Cells were rehydrated in PBS, incubated for 30 minutes at 37° C. with 200 μg/ml RNAse A, and for 20 minutes at +4° C. with 40 μg/ml propidium iodide in the dark. The cell cycle distribution was determined with a flow cytometer (FACSCalibur and Cell Quest Pro software, BD Biosciences, Le-Pont-de-Claix, France).\nTo study the mechanism of OTX-008-induced inhibition of cell proliferation, the effect of OTX-008 on cell cycle in SQ20B cells was examined (FIG. 5B). […] Activation of cdc2 (cdk1) by de-phosphorylation of tyrosine 15 is required for G2/M transition. […] Thus, the level of phosphorylated cdc2 on tyrosine 15 and wee1 on serine 642 in SQ20B cell line were exposed to 3 μM OTX-008 for 72 h. […] In order to determine the potential relationship between the inhibition of MAPK signaling pathways and the effects on cell cycle by OTX-008, SQ20B cells were pretreated for 2 h with the ERK1/2 inhibitor UO126 followed by the OTX-008 addition for 72 hours."}, "[3]": {"conditions": "72 h drug exposure and 48 h wash-out"}}}
{"molecule": "CN(C)CCNC(=O)COc1c2cccc1Cc1cccc(c1OCC(=O)NCCN(C)C)Cc1cccc(c1OCC(=O)NCCN(C)C)Cc1cccc(c1OCC(=O)NCCN(C)C)C2", "note": "[OTX-008]", "values": [{"measurement": "sensitivity to OTX-008 among the cell lines tested", "setting": "SQ20B", "result": "most sensitive"}, {"measurement": "antiproliferative effects (MTT)", "setting": "SQ20B; [3]", "result": "dose-dependent antiproliferative effects"}, {"measurement": "antiproliferative effects (MTT)", "setting": "OVCAR3", "result": "dose-dependent antiproliferative effects"}, {"measurement": "sensitivity to OTX-008", "setting": "A2780-1A9", "result": "only marginally sensitive"}, {"measurement": "antiproliferative effects (MTT)", "setting": "A2780-1A9; [3]", "result": "dose-dependent antiproliferative effects"}, {"measurement": "cdc2 activity (phosphorylation on tyrosine 15)", "setting": "cdc2 (tyrosine 15)", "result": "inactivated cdc2"}, {"measurement": "invasion of SQ20B cells, agent alone", "setting": "SQ20B cells [1]; 48 h, 1 g/ml galectin-1, 1 μg/ml semaphorin-3A, 10 μM UO126, 3 μM OTX-008", "result": "inhibits proliferation and invasion"}, {"measurement": "galectin-1 and semaphorin-3A induced invasion", "setting": "SQ20B cells [1]; SQ20B, 3 μM OTX-008, 48 h", "result": "inhibited"}, {"measurement": "cell cycle distribution", "setting": "SQ20B cells [2]", "result": "dose-dependent accumulation of cells in G2/M phase"}]}
